# According to US10294202B2, “Pyrrolidinones as herbicides” (FMC Corporation, priority 2013, dated 2019):
# Tests used:
# [1] = system: barnyardgrass; test: Test A pre-/postemergence herbicide test; format: in vivo, Echinochloa crus-galli
# Summary of the method: (§1)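 Approximately 10 days after treatment in the greenhouse, plants were compared with untreated controls and given a 0–100 visual injury rating. Applications: preemergence directed soil spray; postemergence on 2–10 cm plants at the one- to two-leaf stage.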
# [2] = system: giant foxtail; test: Test A pre-/postemergence herbicide test; format: in vivo, Setaria faberii
# Summary of the method: as §1
# [3] = system: pigweed; test: Test A pre-/postemergence herbicide test; format: in vivo, Amaranthus retroflexus
# Summary of the method: as §1
# [4] = system: galium; test: Test C pre-/postemergence herbicide test; format: in vivo, Galium aparine; details: Preemergence; for Galium plant response rating: 31 g ai/ha
# Summary of the method: (§2)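 Plants grown and held in a greenhouse for 13 to 15 days post-spray, then rated 0–100 by visual comparison with controls. Pre treatments targeted seeds in loam and sand; post treatments targeted 1- to 4-leaf plants in peat-based potting medium.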
# [5] = system: crabgrass, large; test: Test C pre-/postemergence herbicide test; format: in vivo, Digitaria sanguinalis
# Summary of the method: as §2
# [6] = system: foxtail, giant; test: Test C pre-/postemergence herbicide test; format: in vivo, Setaria faberii
# Summary of the method: as §2
# [7] = system: lambsquarters; test: Test C pre-/postemergence herbicide test; format: in vivo, Chenopodium album
# Summary of the method: as §2
# [8] = system: morningglory; test: Test C pre-/postemergence herbicide test; format: in vivo, Ipomoea coccinea
# Summary of the method: as §2
# [9] = system: oat, wild; test: Test C pre-/postemergence herbicide test; format: in vivo, Avena fatua
# Summary of the method: as §2
# [10] = system: velvetleaf; test: Test C pre-/postemergence herbicide test; format: in vivo, Abutilon theophrasti
# Summary of the method: as §2
# [11] = Postemergence, 125 g ai/ha, 0 to 100 scale, 0 no effect, 100 complete control
# [12] = Postemergence, 500 g ai/ha, 0 to 100 scale (0 no effect, 100 complete control)
# [13] = Preemergence, 125 g ai/ha, visual rating on 0 to 100 scale (0 no effect, 100 complete control)
# [14] = preemergence, 500 g ai/ha, 0 to 100 scale
# [15] = 125 g ai/ha, scale 0 to 100 (0 no effect, 100 complete control)
# [16] = Postemergence, 31 g ai/ha, scale 0 (no effect) to 100 (complete control)
# [17] = Postemergence, 62 g ai/ha, scale 0 to 100 (0 no effect, 100 complete control)
# [18] = Postemergence, 125 g ai/ha, scale 0 to 100 (0 no effect, 100 complete control)
# [19] = Postemergence, 250 g ai/ha, scale 0 to 100 (0 no effect, 100 complete control)
# [20] = Preemergence, 31 g ai/ha, scale 0 to 100, 0 is no effect and 100 is complete control
# [21] = Preemergence, 62 g ai/ha, scale 0 to 100
# [22] = Preemergence, 125 g ai/ha, scale 0 to 100 (0 no effect, 100 complete control)
# [23] = Postemergence, 1000 g ai/ha, 0 to 100 scale (0 no effect, 100 complete control)
# [24] = Preemergence, 1000 g ai/ha, visual rating on 0 to 100 scale (0 no effect, 100 complete control), approx. 10 days
# [25] = scale 0 to 100 (0 no effect, 100 complete control)
# [26] = 250 g ai/ha, scale 0 to 100 (0 no effect, 100 complete control)
# [27] = Preemergence, 31 g ai/ha, scale 0 to 100 (0 no effect, 100 complete control)
# [28] = Preemergence, 250 g ai/ha, scale 0 to 100 (0 no effect, 100 complete control)
compound,measurement,setting,value
O=C1NCC(c2ccccc2)C1C(=O)Nc1ccccc1F (racemic) [Compound 81],"Plant response rating, Barnyardgrass",[1]; [11],30
same,"Plant response rating, Barnyardgrass",[1]; [12],80
same,Barnyardgrass plant response rating,[1]; [13],40
same,"Plant response rating, Barnyardgrass","[1]; preemergence, 500 g ai/ha, 0 to 100 scale (0 no effect, 100 complete control)",80
same,"Plant response rating, Foxtail, Giant",[2]; [11],20
same,"Plant response rating, Foxtail, Giant",[2]; [12],70
same,"Foxtail, Giant plant response rating",[2]; [13],30
same,"Plant response rating, Foxtail, Giant",[2]; [14],90
same,"Plant response rating, Pigweed",[3]; [11],0
same,"Plant response rating, Pigweed",[3]; [12],0
same,Pigweed plant response rating,[3]; [13],0
same,"Plant response rating, Pigweed",[3]; [14],0
same,Galium plant response rating,"[4]; scale 0 to 100, 0 is no effect and 100 is complete control",0
same,"Plant response rating, Galium","[4]; 62 g ai/ha, scale 0 to 100",0
same,"Plant response rating, Galium",[4]; [15],0
same,"Plant response rating (scale of 0 to 100), Galium",[4]; 250 g ai/ha,0
same,"Plant response rating, Crabgrass, Large",[5]; [16],0
same,"Plant response rating, Crabgrass, Large",[5]; [17],0
same,"Plant response rating, Crabgrass, Large",[5]; [18],3
same,"Plant response rating, Crabgrass, Large",[5]; [19],7
same,"Crabgrass, Large plant response rating",[5]; [20],50
same,"Plant response rating, Crabgrass, Large",[5]; [21],75
same,"Plant response rating, Crabgrass, Large",[5]; [22],90
same,"Plant response rating (scale of 0 to 100), Crabgrass, Large","[5]; Preemergence, 250 g ai/ha",95
same,"Plant response rating, Foxtail, Giant",[6]; [16],0
same,"Plant response rating, Foxtail, Giant",[6]; [17],0
same,"Plant response rating, Foxtail, Giant",[6]; [18],0
same,"Plant response rating, Foxtail, Giant",[6]; [19],7
same,"Foxtail, Giant plant response rating",[6]; [20],0
same,"Plant response rating, Foxtail, Giant",[6]; [21],17
same,"Plant response rating, Foxtail, Giant",[6]; [22],37
same,"Plant response rating (scale of 0 to 100), Foxtail, Giant","[6]; Preemergence, 250 g ai/ha",73
same,"Plant response rating, Lambsquarters",[7]; [16],0
same,"Plant response rating, Lambsquarters",[7]; [17],0
same,"Plant response rating, Lambsquarters",[7]; [18],0
same,"Plant response rating, Lambsquarters",[7]; [19],3
same,Lambsquarters plant response rating,[7]; [20],0
same,"Plant response rating, Lambsquarters",[7]; [21],0
same,"Plant response rating, Lambsquarters",[7]; [22],0
same,"Plant response rating (scale of 0 to 100), Lambsquarters","[7]; Preemergence, 250 g ai/ha",27
same,"Plant response rating, Morningglory",[8]; [16],0
same,"Plant response rating, Morningglory",[8]; [17],0
same,"Plant response rating, Morningglory",[8]; [18],0
same,"Plant response rating, Morningglory",[8]; [19],0
same,Morningglory plant response rating,[8]; [20],0
same,"Plant response rating, Morningglory",[8]; [21],0
same,"Plant response rating, Morningglory",[8]; [22],0
same,"Plant response rating (scale of 0 to 100), Morningglory","[8]; Preemergence, 250 g ai/ha",0
same,"Plant response rating, Oat, Wild",[9]; [16],0
same,"Plant response rating, Oat, Wild",[9]; [17],0
same,"Plant response rating, Oat, Wild",[9]; [18],0
same,"Plant response rating, Oat, Wild",[9]; [19],0
same,"Oat, Wild plant response rating",[9]; [20],0
same,"Plant response rating, Oat, Wild",[9]; [21],0
same,"Plant response rating, Oat, Wild",[9]; [22],0
same,"Plant response rating (scale of 0 to 100), Oat, Wild","[9]; Preemergence, 250 g ai/ha",0
same,"Plant response rating, Velvetleaf",[10]; [16],0
same,"Plant response rating, Velvetleaf",[10]; [17],0
same,"Plant response rating, Velvetleaf",[10]; [18],0
same,"Plant response rating, Velvetleaf",[10]; [19],0
same,Velvetleaf plant response rating,[10]; [20],0
same,"Plant response rating, Velvetleaf",[10]; [21],0
same,"Plant response rating, Velvetleaf",[10]; [22],0
same,"Plant response rating (scale of 0 to 100), Velvetleaf","[10]; Preemergence, 250 g ai/ha",0
O=C1NCC(c2cc(F)c(F)c(F)c2)C1C(=O)Nc1ccccc1C(F)(F)F (racemic) [Compound 33],"Plant response rating, Barnyardgrass",[1]; [23],90
same,"Plant response rating, Barnyardgrass",[1]; [24],90
same,"Plant response rating, Foxtail, Giant",[2]; [23],90
same,"Plant response rating, Foxtail, Giant",[2]; [24],90
same,"Plant response rating, Pigweed",[3]; [23],0
same,"Plant response rating, Pigweed",[3]; [24],0
same,Galium plant response rating,[4]; [25],0
same,"Plant response rating, Galium","[4]; 62 g ai/ha, scale 0 to 100",0
same,"Plant response rating, Galium",[4]; [15],60
same,"Plant response rating, Galium",[4]; [26],90
same,"Crabgrass, Large plant response rating",[5]; [27],95
same,"Plant response rating, Crabgrass, Large",[5]; [21],98
same,"Plant response rating, Crabgrass, Large",[5]; [22],100
same,"Plant response rating, Crabgrass, Large",[5]; [28],100
same,"Foxtail, Giant plant response rating",[6]; [27],75
same,"Plant response rating, Foxtail, Giant",[6]; [21],95
same,"Plant response rating, Foxtail, Giant",[6]; [22],98
same,"Plant response rating, Foxtail, Giant",[6]; [28],98
same,"Plant response rating, Lambsquarters",[7]; [21],0
same,"Plant response rating, Lambsquarters",[7]; [22],25
same,"Plant response rating, Morningglory",[8]; [21],0
same,"Plant response rating, Morningglory",[8]; [22],0
same,"Plant response rating, Oat, Wild",[9]; [21],0
same,"Plant response rating, Oat, Wild",[9]; [22],20
same,"Plant response rating, Velvetleaf",[10]; [21],10
same,"Plant response rating, Velvetleaf",[10]; [22],10
Cc1ccccc1NC(=O)C1C(=O)NCC1c1cc(F)c(F)c(F)c1 (racemic) [Compound 35],"Plant response rating, Barnyardgrass",[1]; [23],90
same,"Plant response rating, Barnyardgrass",[1]; [24],90
same,"Plant response rating, Foxtail, Giant",[2]; [23],90
same,"Plant response rating, Foxtail, Giant",[2]; [24],90
same,"Plant response rating, Pigweed",[3]; [23],0
same,"Plant response rating, Pigweed",[3]; [24],0
same,Galium plant response rating,[4]; [25],0
same,"Plant response rating, Galium","[4]; 62 g ai/ha, scale 0 to 100",0
same,"Plant response rating, Galium",[4]; [15],5
same,"Plant response rating, Galium",[4]; [26],30
same,"Crabgrass, Large plant response rating",[5]; [27],95
same,"Plant response rating, Crabgrass, Large",[5]; [21],98
same,"Plant response rating, Crabgrass, Large",[5]; [22],100
same,"Plant response rating, Crabgrass, Large",[5]; [28],100
same,"Foxtail, Giant plant response rating",[6]; [27],80
same,"Plant response rating, Foxtail, Giant",[6]; [21],90
same,"Plant response rating, Foxtail, Giant",[6]; [22],98
same,"Plant response rating, Foxtail, Giant",[6]; [28],98
same,"Plant response rating, Lambsquarters",[7]; [21],0
same,"Plant response rating, Lambsquarters",[7]; [22],0
same,"Plant response rating, Morningglory",[8]; [21],10
same,"Plant response rating, Morningglory",[8]; [22],10
same,"Plant response rating, Oat, Wild",[9]; [21],0
same,"Plant response rating, Oat, Wild",[9]; [22],0
same,"Plant response rating, Velvetleaf",[10]; [21],20
same,"Plant response rating, Velvetleaf",[10]; [22],20
